Patent US20250122239A1 (K BENHAVNS UNIVERSITET, published 2025)
Ends that are not written are not given here.

Assays:
lean mice = test: food intake in chow fed lean mice, shortened GLP-1-NT combination peptides (Example 9); format: in vivo; conditions: 100 nmol/kg, single SC injection, chow fed lean mice fasted overnight
Experimental: Chow fed lean mice fasted overnight were injected once SC in the beginning of the light cycle and food returned. Food intake measured continuously after injection in an indirect calorimetry system. Food intake was analysed using repeated measures two-way ANOVA followed by a Tukey's post hoc test.

[1] = target: human neurotensin receptor NTSR1 (pCMVhNTSR 1, transiently expressed in HEK293 cells) (human, UniProt P30989 1-418); test: cell-based or functional assay
Sequence of human neurotensin receptor NTSR1 (pCMVhNTSR 1, transiently expressed in HEK293 cells) (P30989 whole entry): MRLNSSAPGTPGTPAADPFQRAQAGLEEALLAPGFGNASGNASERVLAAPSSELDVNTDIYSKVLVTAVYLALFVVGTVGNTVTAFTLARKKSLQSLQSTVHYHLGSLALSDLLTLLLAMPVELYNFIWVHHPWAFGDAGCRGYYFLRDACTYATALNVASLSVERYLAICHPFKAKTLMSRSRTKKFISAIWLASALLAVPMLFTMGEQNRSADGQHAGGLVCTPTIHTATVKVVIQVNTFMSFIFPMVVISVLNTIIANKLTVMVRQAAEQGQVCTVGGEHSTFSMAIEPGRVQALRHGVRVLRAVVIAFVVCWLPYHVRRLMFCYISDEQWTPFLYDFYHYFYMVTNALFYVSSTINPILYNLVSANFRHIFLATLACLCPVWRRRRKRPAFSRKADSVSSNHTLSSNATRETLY

HAEFTFTSDVSSYLEGQKKGGELYENKPRRPYIL-acid (HAEFTFTSDVSSYLEGQKKGGELYENKPRRPYIL-OH) [Peptide 10]
food intake in comparison to saline (lean mice): p<0.001 peptide 10 vs. saline

HAEGTFTSDVSSYLEGQELYENKPRRPYIL-acid (HAEGTFTSDVSSYLEGQELYENKPRRPYIL-OH) [Peptide 9]
food intake in comparison to saline (lean mice): p<0.05 peptide 9 vs. saline

HAEGTFTSDVSSYLEGQAAKEFIAWLVKGRLYENKPRRPYIL [GLP-1/NT fusion peptide (SEQ ID NO: 45)]
inositol phosphate (IP) accumulation, LogEC50 [1]: -8.5
